# Data as given in patent US20160238590A1, “COMPOSITIONS AND METHODS RELATED TO OAT SENSITIVITY” (IMMUSANT, INC., priority 2013, published 2016).
# Where no end group is shown, it is not given here.
# Tests used:
# Test in all cases: IFN-γ ELISpot with T cell clone
# Assay type in all cases: cell-based, human
# Patient 9 TCC-02 = settings: TCC Patient 9 TCC-02, peptide 50 μg/mL
# Protocol: (§1) Peripheral blood mononuclear cells (PBMC) were isolated from heparinized whole blood using Ficoll-Paque™ Plus density-gradient centrifugation (GE Healthcare). IFN-γ ELISpot (Mabtech) was set up as previously described^8.
# (§2) Isolation of TCC from CD patients was carried out as previously described^8. Briefly, CFSE-labeled PBMC were incubated with antigen for 7 days in IMDM supplemented with 5% heat-inactivated pooled human serum (PHS), 2 mM GlutaMAX™, 100 μM MEM non-essential amino acids (both from Gibco, Invitrogen), and 50 μM 2-mercaptoethanol (Sigma). Proliferated cells were single-cell sorted into 96-well plates containing IL-2, IL-4, anti-CD3 mAb, irradiated feeder cells (allogeneic PBMC and JY-EBV). TCC were expanded and maintained in IL-2 and IL-4 and tested for specificity by ELISpot with irradiated HLA-matched PBMC as antigen-presenting cells. Expanded clones were tested for HLA-DQ restriction, TCR Vbeta usage, and with lysine scans to work out minimal epitopes. See Table 1 below for TCC and epitope information.
# Patient 10 TCC-01 = settings: TCC Patient 10 TCC-01, peptide 50 μg/mL
# Protocol: as §1, §2
# Patient 9 TCC-01 = settings: TCC Patient 9 TCC-01, peptide 50 μg/mL
# Protocol: as §1, §2
# Patient 14 TCC-01 = settings: TCC Patient 14 TCC-01, peptide 50 μg/mL
# Protocol: as §1, §2
# Patient 6 TCC-01 = test system: Patient 6 TCC-01
# Protocol: as §1, §2
# Patient 2 TCC-01 = test system: Patient 2 TCC-01
# Protocol: as §1, §2
# Patient 8 TCC-01 = settings: TCC Patient 8 TCC-01, peptide 25 μg/mL
# Protocol: as §1, §2
# Patient 2 TCC-02 = settings: TCC Patient 2 TCC-02, peptide 25 μg/mL
# Protocol: as §1, §2
# Patient 2 TCC-03 = settings: TCC Patient 2 TCC-03, peptide 25 μg/mL
# Protocol: as §1, §2
# [1] = TCC Patient 6 TCC-01, peptide 50 μg/mL
# [2] = TCC Patient 2 TCC-01, peptide 50 μg/mL
# [3] = TCC Patient 6 TCC-01, peptide 25 μg/mL
# [4] = TCC Patient 2 TCC-01, peptide 25 μg/mL
Sequence,IFN-γ ELISpot response (raw SFU) (Patient 9 TCC-02) [SFU],IFN-γ ELISpot response (raw SFU) (Patient 10 TCC-01) [SFU],IFN-γ ELISpot response (raw SFU) (Patient 9 TCC-01) [SFU],IFN-γ ELISpot response (raw SFU) (Patient 14 TCC-01) [SFU],IFN-γ ELISpot response (raw SFU) (Patient 6 TCC-01; [1]) [SFU],IFN-γ ELISpot response (raw SFU) (Patient 2 TCC-01; [2]) [SFU],IFN-γ ELISpot response (SFU) (Patient 8 TCC-01),significant SFU as a percentage of maximal peptide SFU (Patient 8 TCC-01),IFN-γ ELISpot response (SFU) (Patient 2 TCC-02),IFN-γ ELISpot response (SFU) (Patient 6 TCC-01; [3]),significant SFU as a percentage of maximal peptide SFU (Patient 6 TCC-01; [3]),IFN-γ ELISpot response (SFU) (Patient 2 TCC-03),IFN-γ ELISpot response (SFU) (Patient 2 TCC-01; [4]),significant SFU as a percentage of maximal peptide SFU (Patient 2 TCC-01; [4]),also measured
LQPFPQPELPYPQPQ [reference compound],240,39,287,22,2,0,–,–,–,–,–,–,–,–,significant SFU as a percentage of maximal peptide SFU (Patient 9 TCC-02): *** (***: >70%); significant SFU as a percentage of maximal peptide SFU (Patient 9 TCC-01): *** (***: >70%)
PEQPFPEQPQPYPQQP (not fully specified (C-terminus)),0,3,0,66,73,202,145,*** (***: >70%),5,59,** (**: 40-70%),159,151,** (**: 40-70%),significant SFU as a percentage of maximal peptide SFU (Patient 14 TCC-01): *** (***: >70%); significant SFU as a percentage of maximal peptide SFU (Patient 6 TCC-01; [1]): *** (***: >70%); significant SFU as a percentage of maximal peptide SFU (Patient 2 TCC-03): *** (***: >70%); significant SFU as a percentage of maximal peptide SFU (Patient 2 TCC-01; [2]): ** (**: 40-70%)
SEQYQPYPEQEQPFV [DQ2.5-ave-1b],–,–,–,–,–,–,50,* (*: 20-40%),102,30,* (*: 20-40%),1,240,*** (***: >70%),significant SFU as a percentage of maximal peptide SFU (Patient 2 TCC-02): * (*: 20-40%)
